Results taken from patent US6436978B1, “Guanidinylamino heterocycle compounds useful as α-2 adrenoceptor agonists” (The Procter & Gamble Co., priority 1996, dated 2002).

How the values were obtained:
[1] = system: patient with migraine; assay: Oral tablet given to a patient with migraine; assay type: in vivo, human; settings: Example K oral tablet, 4 mg per tablet, one tablet swallowed
Excerpt: One tablet is swallowed by a patient with migraine.

[2] = system: human subject suffering from septic or cardiogenic shock; assay: Intravenous solution given to a human subject suffering from septic or cardiogenic shock; assay type: in vivo; settings: Example T solution 10 mg/ml carrier, approximately 2.0 ml intravenously
Protocol: The above ingredients are mixed, forming a solution. Approximately 2.0 ml of the solution is administered, intravenously, to a human subject suffering from septic or cardiogenic shock.

[3] = system: patient with glaucoma; assay: Topical ophthalmic composition given to a patient with glaucoma, intraocular pressure; assay type: in vivo, human; settings: Example G topical ophthalmic composition 0.10 % w/v, one-tenth of a mL into each eye
Protocol: One-tenth of a mL of the composition is administered directly into each eye of a patient with glaucoma.

[4] = system: patient with nasal congestion; assay: Composition given to a patient with nasal congestion; assay type: in vivo, human
Protocol: One tablet is swallowed by a patient with nasal congestion.
One tablet is chewed and swallowed by a patient with nasal congestion.
One tablet is placed under the tongue of a patient with nasal congestion and allowed to dissolve.
One-tenth of a mL of the composition is sprayed from a pump actuator into each nostril of a patient with nasal congestion.
One-fifth of a mL of the composition is applied as drops from a dropper into each nostril of a patient with nasal congestion.
One 15 mL dose of the alcohol-free liquid medication is swallowed by a patient with nasal congestion.

[5] = system: patient with nasal congestion and runny nose due to allergic rhinitis; assay: Oral liquid given to a patient with nasal congestion and runny nose due to allergic rhinitis; assay type: in vivo, human; settings: Example H oral liquid, 15 mg with chlorpheniramine maleate 4 mg per 15 mL dose, one dose swallowed
Protocol: One 15 mL dose of the liquid composition is swallowed by a patient with nasal congestion and runny nose due to allergic rhinitis.

[6] = system: patient with asthma; assay: Inhalation aerosol given to a patient with asthma; assay type: in vivo, human; settings: Example F inhalation aerosol 5.0 % w/v, two puffs from a metered-dose inhaler
Excerpt: Two-puffs of the aerosol composition is inhaled from a metered-dose inhaler by a patient with asthma.

Compound	pain and aura of migraine [1]	symptoms of septic or cardiogenic shock [2]	intraocular pressure [3]	nasal congestion ([4]; Example B chewable tablet, 15.0 mg per tablet, one tablet chewed and swallowed)	nasal congestion ([4]; Example D intranasal solution 0.20 % w/v, one-tenth of a mL sprayed into each nostril)	nasal congestion ([4]; Example E intranasal gel 0.10 % w/v, one-fifth of a mL as drops into each nostril)	congestion and runny nose [5]	asthmatic condition [6]	nasal congestion ([4]; Example A oral tablet, 20.0 mg per tablet, one tablet swallowed)	nasal congestion ([4]; Example C sublingual tablet, 2.00 mg per tablet, one tablet under the tongue)	nasal congestion ([4]; Example J alcohol-free oral liquid, 30 mg per 15 mL dose, one dose swallowed)
Cc1c(NNC(=N)N)ccc2cccnc12 [Example 1, [(8-Methylquinolin-7-yl)amino]guanidine]	substantially diminished	symptoms subside	substantially reduced	substantially reduced	substantially diminished	substantially reduced	–	–	–	–	–
[(4-Methylbenzimidazol-5-yl)amino]guanidine [Example 2]	–	–	–	–	–	–	effectively reduced	effectively relieved	substantially diminished	rapidly and substantially diminished	substantially diminished
